These results are taken from patent US9353084B2, “2-amino 3,5,5-trifluoro-3,4,5,6-tetrahydropyridines as BACE1 inhibitors for treatment of Alzheimer's disease” (H. Lundbeck A/S, priority 2014, dated 2016).

Structures can show the parent of a compound that is named as a salt.

Chain of human BACE1 (P56817 46-501): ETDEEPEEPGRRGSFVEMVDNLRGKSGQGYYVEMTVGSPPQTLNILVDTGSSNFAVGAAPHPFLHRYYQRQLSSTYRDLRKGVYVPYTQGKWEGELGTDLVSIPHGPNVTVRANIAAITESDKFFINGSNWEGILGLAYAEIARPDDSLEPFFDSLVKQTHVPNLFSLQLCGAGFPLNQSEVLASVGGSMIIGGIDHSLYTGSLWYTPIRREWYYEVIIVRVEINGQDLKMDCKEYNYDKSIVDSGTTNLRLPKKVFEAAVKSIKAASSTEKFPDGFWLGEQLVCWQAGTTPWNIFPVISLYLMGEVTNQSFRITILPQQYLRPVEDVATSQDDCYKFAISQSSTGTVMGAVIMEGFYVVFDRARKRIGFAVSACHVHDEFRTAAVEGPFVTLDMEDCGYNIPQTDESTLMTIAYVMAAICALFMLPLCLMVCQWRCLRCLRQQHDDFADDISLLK

This assay concerns the target human BACE1 (Homo sapiens (Human), UniProt P56817). The assay is described as follows: BACE1 binding assay (SPA-based, radioligand displacement). The settings on record: pH 4.5, Ki calculated from IC50. The procedure: The binding assay was performed as SPA-based assay using a biotinylated form of human BACE1 recombinantly expressed and subsequently purified from Freestyle HEK293 cells. The binding assay was run in a 50 mM sodium acetate buffer, pH 4.5 containing 50 mM NaCl and 0.03% Tween-20 in white clear bottom 384 plates (Corning #3653). 10 nM (final concentration) radioligand ([^3H]—N-((1S,2R)-1-benzyl-3-cyclopropylamino-2-hydroxy-propyl)-5-(methanesulfonyl-methyl-amino)-N—((R)-1-phenyl-ethyl)-isophthalamide) (TRQ11569 purchased from GE Healthcare) was mixed with test compound at a given concentration, 6 nM (final concentration) human BACE1 and 25 μg Streptavidin coated PVT core SPA beads (RPNQ0007, GE Healthcare Life Sciences) in a total volume of 40 μl. Several concentrations of each test compound were tested in the assay for IC50 determination. The plates were incubated for one hour at room temperature and counted in a Wallac Trilux counter. Total and non-specific binding were determined using buffer and 1 μM (final concentration) of the high affinity BACE1 reference inhibitor (S)-6-[3-chloro-5-(5-prop-1-ynyl-pyridin-3-yl)-thiophen-2-yl]-2-imino-3,6-dimethyl-tetrahydro-pyrimidin-4-one, respectively. For each test compound, a IC50 value (the concentration mediating 50% inhibition of the specific binding of the radioligand) was determined from concentration-response curve and used to calculate the Ki from the equation Ki=IC50/(1+L/Kd), where L and Kd are the final concentration of the radioligand used in the assay and the dissociation constant of the radioligand, respectively. The Kd of the radioligand was determined from saturation binding experiments.
The Ki is the equilibrium dissociation constant of an inhibitor or competing ligand from its target. For the compound `C[C@@]1(F)CC(F)(F)[C@@](C)(c2cc(NC(=O)c3ccc(C(F)(F)F)cn3)ccc2F)N=C1N` [Compound 28, N-(3-((2R,5R)-6-amino-3,3,5-trifluoro-2,5-dimethyl-2,3,4,5-tetrahydropyridin-2-yl)-4-fluorophenyl)-5-(trifluoromethyl)picolinamide], the Ki was 170 nM.

Take `C[C@@]1(F)CC(F)(F)[C@@](C)(c2cc(NC(=O)c3nc(CF)co3)ccc2F)N=C1N` [Compound 30, N-(3-((2R,5R)-6-amino-3,3,5-trifluoro-2,5-dimethyl-2,3,4,5-tetrahydropyridin-2-yl)-4-fluorophenyl)-4-(fluoromethyl)oxazole-2-carboxamide]: the Ki was 260 nM. The result for `C[C@@]1(F)CC(F)(F)[C@@](C)(c2cc(NC(=O)c3nc(CF)cs3)ccc2F)N=C1N` [Compound 31, N-(3-((2R,5R)-6-amino-3,3,5-trifluoro-2,5-dimethyl-2,3,4,5-tetrahydropyridin-2-yl)-4-fluorophenyl)-4-(fluoromethyl)thiazole-2-carboxamide] reads 92 nM; that for `C[C@@]1(F)CC(F)(F)[C@@](C)(c2cc(NC(=O)c3ccc(C#N)cn3)ccc2F)N=C1N` [Compound 32, N-(3-((2R,5R)-6-amino-3,3,5-trifluoro-2,5-dimethyl-2,3,4,5-tetrahydropyridin-2-yl)-4-fluorophenyl)-5-cyanopicolinamide], 51 nM. The result for `C[C@@]1(F)CC(F)(F)[C@@](C)(c2cc(NC(=O)c3ccc(Cl)cn3)ccc2F)N=C1N` [Compound 33, N-(3-((2R,5R)-6-amino-3,3,5-trifluoro-2,5-dimethyl-2,3,4,5-tetrahydropyridin-2-yl)-4-fluorophenyl)-5-chloropicolinamide] reads 62 nM; that for `Cc1nc(C(=O)Nc2ccc(F)c([C@@]3(C)N=C(N)[C@](C)(F)CC3(F)F)c2)co1` [Compound 34, N-(3-((2R,5R)-6-amino-3,3,5-trifluoro-2,5-dimethyl-2,3,4,5-tetrahydropyridin-2-yl)-4-fluorophenyl)-2-methyloxazole-4-carboxamide], 210 nM. The result for `Cc1nc(C(=O)Nc2ccc(F)c([C@@]3(C)N=C(N)[C@](C)(F)CC3(F)F)c2)no1` [Compound 35, N-(3-((2R,5R)-6-amino-3,3,5-trifluoro-2,5-dimethyl-2,3,4,5-tetrahydropyridin-2-yl)-4-fluorophenyl)-5-methyl-1,2,4-oxadiazole-3-carboxamide] reads 680 nM; that for `C[C@@]1(F)CC(F)(F)[C@@](C)(c2cc(NC(=O)c3nccs3)ccc2F)N=C1N` [Compound 36, N-(3-((2R,5R)-6-amino-3,3,5-trifluoro-2,5-dimethyl-2,3,4,5-tetrahydropyridin-2-yl)-4-fluorophenyl)thiazole-2-carboxamide], 390 nM; that for `Cn1cc(Br)nc1C(=O)Nc1ccc(F)c([C@@]2(C)N=C(N)[C@](C)(F)CC2(F)F)c1` [Compound 37, N-(3-((2R,5R)-6-amino-3,3,5-trifluoro-2,5-dimethyl-2,3,4,5-tetrahydropyridin-2-yl)-4-fluorophenyl)-4-bromo-1-methyl-1H-imidazole-2-carboxamide], 420 nM. `Cc1cn(C)c(C(=O)Nc2ccc(F)c([C@@]3(C)N=C(N)[C@](C)(F)CC3(F)F)c2)n1` [Compound 38, N-(3-((2R,5R)-6-amino-3,3,5-trifluoro-2,5-dimethyl-2,3,4,5-tetrahydropyridin-2-yl)-4-fluorophenyl)-1,4-dimethyl-1H-imidazole-2-carboxamide]: the Ki was 1000 nM. The result for `Cn1ccc(C(=O)Nc2ccc(F)c([C@@]3(C)N=C(N)[C@](C)(F)CC3(F)F)c2)n1` [Compound 39, N-(3-((2R,5R)-6-amino-3,3,5-trifluoro-2,5-dimethyl-2,3,4,5-tetrahydropyridin-2-yl)-4-fluorophenyl)-1-methyl-1H-pyrazole-3-carboxamide] reads 4800 nM; that for `Cc1cc(C(=O)Nc2ccc(F)c([C@@]3(C)N=C(N)[C@](C)(F)CC3(F)F)c2)on1` [Compound 40, N-(3-((2R,5R)-6-amino-3,3,5-trifluoro-2,5-dimethyl-2,3,4,5-tetrahydropyridin-2-yl)-4-fluorophenyl)-3-methylisoxazole-5-carboxamide], 8200 nM; that for `Cc1ccc(C(=O)Nc2ccc(F)c([C@@]3(C)N=C(N)[C@](C)(F)CC3(F)F)c2)o1` [Compound 41, N-(3-((2R,5R)-6-amino-3,3,5-trifluoro-2,5-dimethyl-2,3,4,5-tetrahydropyridin-2-yl)-4-fluorophenyl)-5-methylfuran-2-carboxamide], 520 nM. The result for `Cc1ncc(C(=O)Nc2ccc(F)c([C@@]3(C)N=C(N)[C@](C)(F)CC3(F)F)c2)o1` [Compound 42, N-(3-((2R,5R)-6-amino-3,3,5-trifluoro-2,5-dimethyl-2,3,4,5-tetrahydropyridin-2-yl)-4-fluorophenyl)-2-methyloxazole-5-carboxamide trifluoroacetic acid salt] reads 1500 nM; that for `[2H]C([2H])([2H])Oc1ccc(C(=O)Nc2ccc(F)c([C@@]3(C)N=C(N)[C@](C)(F)CC3(F)F)c2)nc1` [Compound 43, N-(3-((2R,5R)-6-amino-3,3,5-trifluoro-2,5-dimethyl-2,3,4,5-tetrahydropyridin-2-yl)-4-fluorophenyl)-5-(methoxy-d3)picolinamide], 91 nM.

As to `C[C@@]1(F)CC(F)(F)[C@@](C)(c2cc(NC(=O)c3ccc(Cl)cc3)ccc2F)N=C1N` [Compound 44, N-(3-((2R,5R)-6-amino-3,3,5-trifluoro-2,5-dimethyl-2,3,4,5-tetrahydropyridin-2-yl)-4-fluorophenyl)-4-chlorobenzamide], the Ki was 740 nM.

`C[C@]1(F)CC(F)(F)[C@@](C)(c2cc(NC(=O)c3ccc(OC(F)F)cn3)ccc2F)N=C1N` [Compound 45, N-(3-((2R,5S)-6-amino-3,3,5-trifluoro-2,5-dimethyl-2,3,4,5-tetrahydropyridin-2-yl)-4-fluorophenyl)-5-(difluoromethoxy)picolinamide]: the Ki is 14 nM. To `COc1cnc(C(=O)Nc2ccc(F)c([C@@]3(C)N=C(N)[C@@](C)(F)CC3(F)F)c2)c(F)c1` [Compound 46, N-(3-((2R,5S)-6-amino-3,3,5-trifluoro-2,5-dimethyl-2,3,4,5-tetrahydropyridin-2-yl)-4-fluorophenyl)-3-fluoro-5-methoxypicolinamide] belongs 14 nM. For `Cc1nc(C(=O)Nc2ccc(F)c([C@@]3(C)N=C(N)[C@@](C)(F)CC3(F)F)c2)c(C)o1` [Compound 47, N-(3-((2R,5S)-6-amino-3,3,5-trifluoro-2,5-dimethyl-2,3,4,5-tetrahydropyridin-2-yl)-4 fluorophenyl)-2,5-dimethyloxazole-4-carboxamide], the Ki is 65 nM.

`[2H]C([2H])([2H])Oc1ccc(C(=O)Nc2ccc(F)c([C@@]3(C)N=C(N)[C@@](C)(F)CC3(F)F)c2)nc1` [Compound 48]: the Ki was 14 nM. As to `Cc1cc(F)cnc1C(=O)Nc1ccc(F)c([C@@]2(C)N=C(N)[C@@](C)(F)CC2(F)F)c1` [Compound 49, N-(3-((2R,5S)-6-amino-3,3,5-trifluoro-2,5-dimethyl-2,3,4,5-tetrahydropyridin-2-yl)-4-fluorophenyl)-5-fluoro-3-methylpicolinamide], the Ki was 60 nM.
